{
  "source": "paper PMC10938783",
  "about": "“A novel pan-PI3K inhibitor KTC1101 synergizes with anti-PD-1 therapy by targeting tumor suppression and immune activation” (Molecular Cancer, 2024)",
  "test_system": "B16 cells gene expression",
  "assay": "RNA-Seq (DEGs, GSEA, heatmaps) of B16 cells",
  "conditions": "B16 cells",
  "data": [
    {"smiles": "COc1cc(N)cc2c1nc(C(F)F)n2-c1nc(N2CCCOCC2)nc(N2CCOCC2)n1", "note": "[KTC1101, 2-(difluoromethyl)-4-methoxy-1-(4-morpholino-6-(1,4-oxazepan-4-yl)-1,3,5-triazin-2-yl)-1H-benzo[d]imidazol-6-amine]", "values": [
      {"measurement": "NES: Fat digestion and absorption", "setting": "GSEA KEGG mmu04975, KTC 0.2μM", "result": -1.65},
      {"measurement": "enrichmentScore: Fat digestion and absorption", "setting": "GSEA KEGG mmu04975, KTC 0.2μM", "result": -0.5488},
      {"measurement": "NES: Bile secretion", "setting": "GSEA KEGG mmu04976, KTC 0.2μM", "result": 1.51},
      {"measurement": "enrichmentScore: Bile secretion", "setting": "GSEA KEGG mmu04976, KTC 0.2μM", "result": 0.4976},
      {"measurement": "NES: Mineral absorption", "setting": "GSEA KEGG mmu04978, KTC 0.2μM", "result": -1.388},
      {"measurement": "enrichmentScore: Mineral absorption", "setting": "GSEA KEGG mmu04978, KTC 0.2μM", "result": -0.4138},
      {"measurement": "NES: Cholesterol metabolism", "setting": "GSEA KEGG mmu04979, KTC 0.2μM", "result": -1.456},
      {"measurement": "enrichmentScore: Cholesterol metabolism", "setting": "GSEA KEGG mmu04979, KTC 0.2μM", "result": -0.4442},
      {"measurement": "NES: Alzheimer disease", "setting": "GSEA KEGG mmu05010, KTC 0.2μM", "result": -1.608},
      {"measurement": "enrichmentScore: Alzheimer disease", "setting": "GSEA KEGG mmu05010, KTC 0.2μM", "result": -0.3072},
      {"measurement": "NES: Parkinson disease", "setting": "GSEA KEGG mmu05012, KTC 0.2μM", "result": -1.964},
      {"measurement": "enrichmentScore: Parkinson disease", "setting": "GSEA KEGG mmu05012, KTC 0.2μM", "result": -0.3949},
      {"measurement": "NES: Amyotrophic lateral sclerosis", "setting": "GSEA KEGG mmu05014, KTC 0.2μM", "result": -1.71},
      {"measurement": "enrichmentScore: Amyotrophic lateral sclerosis", "setting": "GSEA KEGG mmu05014, KTC 0.2μM", "result": -0.329},
      {"measurement": "NES: Huntington disease", "setting": "GSEA KEGG mmu05016, KTC 0.2μM", "result": -1.539},
      {"measurement": "enrichmentScore: Huntington disease", "setting": "GSEA KEGG mmu05016, KTC 0.2μM", "result": -0.3057},
      {"measurement": "NES: Prion disease", "setting": "GSEA KEGG mmu05020, KTC 0.2μM", "result": -1.774},
      {"measurement": "enrichmentScore: Prion disease", "setting": "GSEA KEGG mmu05020, KTC 0.2μM", "result": -0.3631},
      {"measurement": "NES: Pathways of neurodegeneration - multiple diseases", "setting": "GSEA KEGG mmu05022, KTC 0.2μM", "result": -1.25},
      {"measurement": "enrichmentScore: Pathways of neurodegeneration - multiple diseases", "setting": "GSEA KEGG mmu05022, KTC 0.2μM", "result": -0.2359},
      {"measurement": "NES: Morphine addiction", "setting": "GSEA KEGG mmu05032, KTC 0.2μM", "result": 2.084},
      {"measurement": "enrichmentScore: Morphine addiction", "setting": "GSEA KEGG mmu05032, KTC 0.2μM", "result": 0.6804},
      {"measurement": "NES: Leishmaniasis", "setting": "GSEA KEGG mmu05140, KTC 0.2μM", "result": 1.636},
      {"measurement": "enrichmentScore: Leishmaniasis", "setting": "GSEA KEGG mmu05140, KTC 0.2μM", "result": 0.5458},
      {"measurement": "NES: Chagas disease", "setting": "GSEA KEGG mmu05142, KTC 0.2μM", "result": 1.762},
      {"measurement": "enrichmentScore: Chagas disease", "setting": "GSEA KEGG mmu05142, KTC 0.2μM", "result": 0.5294},
      {"measurement": "NES: Amoebiasis", "setting": "GSEA KEGG mmu05146, KTC 0.2μM", "result": 1.187},
      {"measurement": "enrichmentScore: Amoebiasis", "setting": "GSEA KEGG mmu05146, KTC 0.2μM", "result": 0.3662},
      {"measurement": "NES: Hepatitis B", "setting": "GSEA KEGG mmu05161, KTC 0.2μM", "result": 1.161},
      {"measurement": "enrichmentScore: Hepatitis B", "setting": "GSEA KEGG mmu05161, KTC 0.2μM", "result": 0.3151},
      {"measurement": "NES: Human cytomegalovirus infection", "setting": "GSEA KEGG mmu05163, KTC 0.2μM", "result": 1.262},
      {"measurement": "enrichmentScore: Human cytomegalovirus infection", "setting": "GSEA KEGG mmu05163, KTC 0.2μM", "result": 0.333},
      {"measurement": "NES: Human T-cell leukemia virus 1 infection", "setting": "GSEA KEGG mmu05166, KTC 0.2μM", "result": 1.309},
      {"measurement": "enrichmentScore: Human T-cell leukemia virus 1 infection", "setting": "GSEA KEGG mmu05166, KTC 0.2μM", "result": 0.342},
      {"measurement": "NES: Kaposi sarcoma-associated herpesvirus infection", "setting": "GSEA KEGG mmu05167, KTC 0.2μM", "result": 1.355},
      {"measurement": "enrichmentScore: Kaposi sarcoma-associated herpesvirus infection", "setting": "GSEA KEGG mmu05167, KTC 0.2μM", "result": 0.3649},
      {"measurement": "NES: Herpes simplex virus 1 infection", "setting": "GSEA KEGG mmu05168, KTC 0.2μM", "result": 1.765},
      {"measurement": "enrichmentScore: Herpes simplex virus 1 infection", "setting": "GSEA KEGG mmu05168, KTC 0.2μM", "result": 0.4327},
      {"measurement": "NES: Transcriptional misregulation in cancer", "setting": "GSEA KEGG mmu05202, KTC 0.2μM", "result": 1.705},
      {"measurement": "enrichmentScore: Transcriptional misregulation in cancer", "setting": "GSEA KEGG mmu05202, KTC 0.2μM", "result": 0.4772},
      {"measurement": "NES: Proteoglycans in cancer", "setting": "GSEA KEGG mmu05205, KTC 0.2μM", "result": 1.25},
      {"measurement": "enrichmentScore: Proteoglycans in cancer", "setting": "GSEA KEGG mmu05205, KTC 0.2μM", "result": 0.3314},
      {"measurement": "NES: Chemical carcinogenesis - reactive oxygen species", "setting": "GSEA KEGG mmu05208, KTC 0.2μM", "result": -1.582},
      {"measurement": "enrichmentScore: Chemical carcinogenesis - reactive oxygen species", "setting": "GSEA KEGG mmu05208, KTC 0.2μM", "result": -0.3305},
      {"measurement": "NES: Prostate cancer", "setting": "GSEA KEGG mmu05215, KTC 0.2μM", "result": 1.478},
      {"measurement": "enrichmentScore: Prostate cancer", "setting": "GSEA KEGG mmu05215, KTC 0.2μM", "result": 0.4248},
      {"measurement": "NES: Basal cell carcinoma", "setting": "GSEA KEGG mmu05217, KTC 0.2μM", "result": -1.6573},
      {"measurement": "enrichmentScore: Basal cell carcinoma", "setting": "GSEA KEGG mmu05217, KTC 0.2μM", "result": -0.5057},
      {"measurement": "NES: Acute myeloid leukemia", "setting": "GSEA KEGG mmu05221, KTC 0.2μM", "result": 1.189},
      {"measurement": "enrichmentScore: Acute myeloid leukemia", "setting": "GSEA KEGG mmu05221, KTC 0.2μM", "result": 0.3668},
      {"measurement": "NES: Small cell lung cancer", "setting": "GSEA KEGG mmu05222, KTC 0.2μM", "result": 1.1778},
      {"measurement": "enrichmentScore: Small cell lung cancer", "setting": "GSEA KEGG mmu05222, KTC 0.2μM", "result": 0.3365},
      {"measurement": "NES: Breast cancer", "setting": "GSEA KEGG mmu05224, KTC 0.2μM", "result": 1.3909},
      {"measurement": "enrichmentScore: Breast cancer", "setting": "GSEA KEGG mmu05224, KTC 0.2μM", "result": 0.3926},
      {"measurement": "NES: Hepatocellular carcinoma", "setting": "GSEA KEGG mmu05225, KTC 0.2μM", "result": -1.183},
      {"measurement": "enrichmentScore: Hepatocellular carcinoma", "setting": "GSEA KEGG mmu05225, KTC 0.2μM", "result": -0.2565},
      {"measurement": "NES: Gastric cancer", "setting": "GSEA KEGG mmu05226, KTC 0.2μM", "result": 1.191},
      {"measurement": "enrichmentScore: Gastric cancer", "setting": "GSEA KEGG mmu05226, KTC 0.2μM", "result": 0.3347},
      {"measurement": "NES: Central carbon metabolism in cancer", "setting": "GSEA KEGG mmu05230, KTC 0.2μM", "result": -1.65},
      {"measurement": "enrichmentScore: Central carbon metabolism in cancer", "setting": "GSEA KEGG mmu05230, KTC 0.2μM", "result": -0.4278},
      {"measurement": "NES: Inflammatory bowel disease", "setting": "GSEA KEGG mmu05321, KTC 0.2μM", "result": 1.418},
      {"measurement": "enrichmentScore: Inflammatory bowel disease", "setting": "GSEA KEGG mmu05321, KTC 0.2μM", "result": 0.5282},
      {"measurement": "NES: Rheumatoid arthritis", "setting": "GSEA KEGG mmu05323, KTC 0.2μM", "result": 1.449},
      {"measurement": "enrichmentScore: Rheumatoid arthritis", "setting": "GSEA KEGG mmu05323, KTC 0.2μM", "result": 0.4777},
      {"measurement": "NES: Hypertrophic cardiomyopathy", "setting": "GSEA KEGG mmu05410, KTC 0.2μM", "result": 1.341},
      {"measurement": "enrichmentScore: Hypertrophic cardiomyopathy", "setting": "GSEA KEGG mmu05410, KTC 0.2μM", "result": 0.4238},
      {"measurement": "NES: Dilated cardiomyopathy", "setting": "GSEA KEGG mmu05414, KTC 0.2μM", "result": 1.501},
      {"measurement": "enrichmentScore: Dilated cardiomyopathy", "setting": "GSEA KEGG mmu05414, KTC 0.2μM", "result": 0.4674},
      {"measurement": "NES: Diabetic cardiomyopathy", "setting": "GSEA KEGG mmu05415, KTC 0.2μM", "result": -1.29},
      {"measurement": "enrichmentScore: Diabetic cardiomyopathy", "setting": "GSEA KEGG mmu05415, KTC 0.2μM", "result": -0.2769},
      {"measurement": "NES: Fluid shear stress and atherosclerosis", "setting": "GSEA KEGG mmu05418, KTC 0.2μM", "result": -1.4518},
      {"measurement": "enrichmentScore: Fluid shear stress and atherosclerosis", "setting": "GSEA KEGG mmu05418, KTC 0.2μM", "result": -0.3333},
      {"measurement": "NES, mmu00071 Fatty acid degradation", "setting": "KTC1101 0.2μM, GSEA KEGG", "result": 0.7528},
      {"measurement": "NES, mmu00310 Lysine degradation", "setting": "KTC1101 0.2μM, GSEA KEGG", "result": -0.7398},
      {"measurement": "NES, mmu00380 Tryptophan metabolism", "setting": "KTC1101 0.2μM, GSEA KEGG", "result": 1.209},
      {"measurement": "NES, mmu00500 Starch and sucrose metabolism", "setting": "KTC1101 0.2μM, GSEA KEGG", "result": -1.196},
      {"measurement": "NES, mmu00510 N-Glycan biosynthesis", "setting": "KTC1101 0.2μM, GSEA KEGG", "result": -0.6482},
      {"measurement": "NES, mmu00513 Various types of N-glycan biosynthesis", "setting": "KTC1101 0.2μM, GSEA KEGG", "result": 1.019},
      {"measurement": "NES, mmu00514 Other types of O-glycan biosynthesis", "setting": "KTC1101 0.2μM, GSEA KEGG", "result": 1.221},
      {"measurement": "NES, mmu00562 Inositol phosphate metabolism", "setting": "KTC1101 0.2μM, GSEA KEGG", "result": -1.021},
      {"measurement": "NES, mmu00564 Glycerophospholipid metabolism", "setting": "KTC1101 0.2μM, GSEA KEGG", "result": -0.7177}
    ]}
  ]
}
